The assay concerns the target T1, ERα protein (HiBiT-tagged) in ESR1_HiBiT KI MCF7 cells (Homo sapiens, UniProt P03372).
T1 sequence (P03372 1-595): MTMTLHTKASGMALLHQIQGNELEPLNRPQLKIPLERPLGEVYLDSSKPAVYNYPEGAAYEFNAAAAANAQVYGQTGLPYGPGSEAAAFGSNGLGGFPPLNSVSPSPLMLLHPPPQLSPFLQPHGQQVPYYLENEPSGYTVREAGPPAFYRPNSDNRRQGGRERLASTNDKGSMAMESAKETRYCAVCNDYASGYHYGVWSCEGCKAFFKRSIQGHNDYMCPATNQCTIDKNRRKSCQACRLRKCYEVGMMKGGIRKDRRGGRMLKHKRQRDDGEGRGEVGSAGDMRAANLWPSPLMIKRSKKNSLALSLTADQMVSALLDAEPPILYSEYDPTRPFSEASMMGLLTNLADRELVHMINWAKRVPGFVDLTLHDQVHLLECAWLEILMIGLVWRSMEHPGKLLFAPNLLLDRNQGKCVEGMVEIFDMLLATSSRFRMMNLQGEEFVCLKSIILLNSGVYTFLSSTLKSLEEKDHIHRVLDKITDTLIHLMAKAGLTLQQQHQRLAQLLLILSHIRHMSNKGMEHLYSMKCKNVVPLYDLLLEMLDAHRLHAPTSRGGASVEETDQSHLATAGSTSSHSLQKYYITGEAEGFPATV
Briefly: Nano Glo HiBiT Lytic Degradation Assay. It is filed as cell-based. The following applies: 6 hours with compound, 14-point dose response 1:3, bell-shape curve fit, half-maximal effect of first Hill model, read-out: MCF7 ESR1 HiBiT - (DC50). The method, then:
Selected compounds of the present disclosure were tested in a Nano Glo HiBiT Lytic Degradation Assay to measure the level of ERα protein degradation in MCF7 cells.
Cell culture: ESR1_HiBiT KI MCF7 cells were maintained in growth media without antibiotics. Cells were maintained in exponential growth phase, between 40% and 90% confluency.
Cell seeding: Cells were counted using a Vi-Cell and seeded in a 384-well flat-bottom microplate (cell culture-treated) at 4000 cells/well in 25 μL of growth medium using a BioTek MultiFlo Multimode Dispenser. Plates were incubated for 24 h at 37° C., 5% CO2, >95% relative humidity.
Compound preparation: Compounds were screened as 14-point dose response curves 1:3 dilutions. DMSO is used as the vehicle control and all wells were normalized to the same final DMSO concentration (0.1% v/v). Compounds were dosed using an Echo Acoustic Liquid Handler, 25 nL of 1000× (10 mM top concentration) DMSO stock/well. Cells were incubated with compounds for 6 hours at 37° C., 5% CO2, >95% relative humidity. Each compound was run in duplicate.
Nano Glo HiBiT Lytic Degradation Assay: HiBiT-tagged ERα protein levels were quantified using a Nano Glo HiBiT Lytic Degradation Assay following the manufacturer's protocol. Briefly, the Nano-Glo® HiBiT Lytic Reagent was prepared by diluting the LgBiT Protein reagent (1:100) and the Nano-Glo® HiBiT Lytic Substrate (1:50) into Nano-Glo® HiBiT Lytic Buffer at room temperature. The 384-well microplate were equilibrated to room temperature and 25 μL of Nano-Glo® HiBiT Lytic Reagent was added to each well. Samples were mixed by placing the 384-well microplate on an orbital shaker for 10 minutes. Luminescence was measured using an EnVision 2105 Multimode Plate Reader.
Data processing and analysis: Background signal (wells containing growth medium without cells) was subtracted from individual relative light units (RLU) values and the resulting values were normalized to the DMSO control well values. Dose responses were analyzed with Genedata Screener® using a bell-shape curve fit and the concentrations corresponding to the half-maximal effect of the first Hill model were used as DC50 values.
(HiBiT is a short tag that completes a luciferase, so light tracks the accessible tagged protein.)

`CC1(C)CCC([C@H]2CCc3cc(O)ccc3[C@H]2c2ccc(N3CCC(CN4CCN(c5ccc6c(c5)CN([C@H]5CCC(=O)NC5=O)C6=O)CC4)CC3)cc2)CC1` (single isomer, unassigned) [Compound I-105]: the DC50 (commonly the concentration at which degradation of the target reaches its halfway point) came to 45.8 nM.

Consider `CC1(C)CCC([C@@H]2CCc3cc(O)ccc3[C@@H]2c2ccc(N3CCC(CN4CCN(c5ccc6c(c5)CN([C@H]5CCC(=O)NC5=O)C6=O)CC4)CC3)cc2)CC1` (single isomer, unassigned) [Compound I-106], for which the 50% degradation concentration (DC50) is 1030 nM.

On to `O=C1CCC(N2Cc3cc(N4CCN(CC5CCN(c6ccc([C@@H]7c8ccc(O)cc8CC[C@@H]7c7cccnc7)cc6)CC5)CC4)ccc3C2=O)C(=O)N1` (single isomer, unassigned) [Compound I-107], for which the DC50 was no less than 10000 nM.

Consider `O=C1CCC(N2Cc3cc(N4CCN(CC5CCN(c6ccc([C@H]7c8ccc(O)cc8CC[C@H]7c7cccnc7)cc6)CC5)CC4)ccc3C2=O)C(=O)N1` (single isomer, unassigned) [Compound I-108], for which the DC50 was 17.3 nM.

With `O=C1CC[C@H](N2Cc3cc(N4CCN(CC5CCN(c6ccc([C@@H]7c8ccc(O)cc8CC[C@@H]7c7cccc(OC(F)(F)F)c7)cc6)CC5)CC4)ccc3C2=O)C(=O)N1` (single isomer, unassigned) [Compound I-109], the half-maximal degradation concentration (DC50) was found to be 1400 nM.

In the case of `O=C1CC[C@H](N2Cc3cc(N4CCN(CC5CCN(c6ccc([C@H]7c8ccc(O)cc8CC[C@H]7c7cccc(OC(F)(F)F)c7)cc6)CC5)CC4)ccc3C2=O)C(=O)N1` (single isomer, unassigned) [Compound I-110], the DC50 was 0.155 nM.

On to `CC[C@H]1CCc2cc(O)ccc2[C@H]1c1ccc(N2CCC(CN3CCN(c4ccc5c(c4)CN([C@H]4CCC(=O)NC4=O)C5=O)CC3)CC2)cc1` (single isomer, unassigned) [Compound I-111], for which the DC50 was 332 nM.

In the case of `CC[C@@H]1CCc2cc(O)ccc2[C@@H]1c1ccc(N2CCC(CN3CCN(c4ccc5c(c4)CN([C@H]4CCC(=O)NC4=O)C5=O)CC3)CC2)cc1` (single isomer, unassigned) [Compound I-112], the half-maximal degradation concentration (DC50) was 0.14 nM.

For the compound `C[C@@H]1O[C@H](C2CCCCC2)[C@H](c2ccc(N3CCC(CN4CCN(c5ccc6c(c5)CN([C@H]5CCC(=O)NC5=O)C6=O)CC4)CC3)cc2)c2ccc(O)cc21` (single isomer, unassigned) [Compound I-205, (S)-3-(5-(4-((1-(4-((1*S,3*R,4*R)-3-cyclohexyl-7-hydroxy-1-methylisochroman-4-yl)phenyl)piperidin-4-yl)methyl)piperazin-1-yl)-1-oxoisoindolin-2-yl)piperidine-2,6-dione], the DC50 is 0.79 nM.

As for `CC(C)C[C@@H]1OCc2cc(O)ccc2[C@@H]1c1ccc(N2CCC(CN3CCN(c4ccc5c(c4)CN([C@H]4CCC(=O)NC4=O)C5=O)CC3)CC2)cc1` (single isomer, unassigned) [Compound I-221], the DC50 is no less than 10000 nM.

Take `CC(C)C[C@@H]1OCc2cc(O)ccc2[C@H]1c1ccc(N2CCC(CN3CCN(c4ccc5c(c4)CN([C@H]4CCC(=O)NC4=O)C5=O)CC3)CC2)cc1` (single isomer, unassigned) [Compound I-222]: the 50% degradation concentration (DC50) came out at 0.32 nM.

Consider `CC(C)C[C@H]1OCc2cc(O)ccc2[C@@H]1c1ccc(N2CCC(CN3CCN(c4ccc5c(c4)CN([C@H]4CCC(=O)NC4=O)C5=O)CC3)CC2)cc1` (single isomer, unassigned) [Compound I-223], for which the half-maximal degradation concentration (DC50) was 10 nM.

On to `CC(C)C[C@H]1OCc2cc(O)ccc2[C@H]1c1ccc(N2CCC(CN3CCN(c4ccc5c(c4)CN([C@H]4CCC(=O)NC4=O)C5=O)CC3)CC2)cc1` (single isomer, unassigned) [Compound I-224], for which the DC50 came out at 0.48 nM.

On to `CC(C)[C@@H]1OCc2cc(O)ccc2[C@@H]1c1ccc(N2CCC(CN3CCN(c4ccc5c(c4)CN([C@H]4CCC(=O)NC4=O)C5=O)CC3)CC2)cc1` (single isomer, unassigned) [Compound I-226], for which the DC50 is 59 nM.

Turning to `C[C@@H](C1CC1)[C@H]1CC(F)(F)c2cc(O)ccc2[C@H]1c1ccc(N2CCC(CN3CCN(c4ccc5c(c4)CN([C@H]4CCC(=O)NC4=O)C5=O)CC3)CC2)cc1` (single isomer, unassigned) [Compound I-227], the half-maximal degradation concentration (DC50) came to 4 nM.

For the compound `C[C@H](C1CC1)[C@H]1CC(F)(F)c2cc(O)ccc2[C@H]1c1ccc(N2CCC(CN3CCN(c4ccc5c(c4)CN([C@H]4CCC(=O)NC4=O)C5=O)CC3)CC2)cc1` (single isomer, unassigned) [Compound I-228], the half-maximal degradation concentration (DC50) was 15 nM.

In the case of `O=C1CC[C@H](N2Cc3cc(N4CCN(CC5CCN(c6ccc([C@@H]7c8ccc(O)cc8CO[C@@H]7CC7CC7)cc6)CC5)CC4)ccc3C2=O)C(=O)N1` (single isomer, unassigned) [Compound I-230], the 50% degradation concentration (DC50) was found to be 1 nM.

For `O=C1CC[C@H](N2Cc3cc(N4CCN(CC5CCN(c6ccc([C@H]7c8ccc(O)cc8CO[C@H]7CC7CC7)cc6)CC5)CC4)ccc3C2=O)C(=O)N1` (single isomer, unassigned) [Compound I-231], the DC50 is no less than 10000 nM.

For `O=C1CC[C@H](N2Cc3cc(N4CCN(CC5CCN(c6ccc([C@@H]7c8ccc(O)cc8CO[C@@H]7CC7CCCC7)cc6)CC5)CC4)ccc3C2=O)C(=O)N1` (single isomer, unassigned) [Compound I-232], the 50% degradation concentration (DC50) is 0.92 nM.

`O=C1CC[C@H](N2Cc3cc(N4CCN(CC5CCN(c6ccc([C@H]7c8ccc(O)cc8CO[C@H]7CC7CCCC7)cc6)CC5)CC4)ccc3C2=O)C(=O)N1` (single isomer, unassigned) [Compound I-233]: the DC50 is 31 nM.

As to `Cc1cc(N2CCC(CN3CCN(c4ccc5c(c4)CN([C@H]4CCC(=O)NC4=O)C5=O)CC3)CC2)cc(F)c1[C@H]1c2ccc(O)cc2CC[C@H]1C1CCCCC1` (single isomer, unassigned) [Compound I-235], the 50% degradation concentration (DC50) was no less than 10000 nM.

`O=C1CC[C@H](N2Cc3cc(N4CCN(CC5CCN(c6ccc([C@@H]7c8ccc(O)cc8CO[C@@H]7C7CC7)cc6)CC5)CC4)ccc3C2=O)C(=O)N1` (single isomer, unassigned) [Compound I-242]: the half-maximal degradation concentration (DC50) stood at 3300 nM.

For `O=C1CC[C@H](N2Cc3cc(N4CCN(CC5CCN(c6ccc([C@H]7c8ccc(O)cc8CO[C@H]7C7CC7)cc6)CC5)CC4)ccc3C2=O)C(=O)N1` (single isomer, unassigned) [Compound I-243], the DC50 came out at 3 nM.

As to `C[C@@H]1O[C@H](C2CCCCC2)[C@@H](c2ccc(N3CCC(CN4CCN(c5ccc6c(c5)CN([C@H]5CCC(=O)NC5=O)C6=O)CC4)CC3)cc2)c2ccc(O)cc21` (single isomer, unassigned) [Compound I-252], the DC50 came out at 22 nM.

In the case of `C[C@H]1O[C@@H](C2CCCCC2)[C@H](c2ccc(N3CCC(CN4CCN(c5ccc6c(c5)CN([C@H]5CCC(=O)NC5=O)C6=O)CC4)CC3)cc2)c2ccc(O)cc21` (single isomer, unassigned) [Compound I-253], the 50% degradation concentration (DC50) stood at 0.45 nM.

Turning to `C[C@@H]1O[C@@H](C2CCCCC2)[C@H](c2ccc(N3CCC(CN4CCN(c5ccc6c(c5)CN([C@H]5CCC(=O)NC5=O)C6=O)CC4)CC3)cc2)c2ccc(O)cc21` (single isomer, unassigned) [Compound I-254], the half-maximal degradation concentration (DC50) was 41 nM.

Take `C[C@H]1O[C@H](C2CCCCC2)[C@@H](c2ccc(N3CCC(CN4CCN(c5ccc6c(c5)CN([C@H]5CCC(=O)NC5=O)C6=O)CC4)CC3)cc2)c2ccc(O)cc21` (single isomer, unassigned) [Compound I-255]: the 50% degradation concentration (DC50) was determined as 0.87 nM.

For the compound `C[C@@]1(C2CCCCC2)OCc2cc(O)ccc2[C@@H]1c1ccc(N2CCC(CN3CCN(c4ccc5c(c4)CN([C@H]4CCC(=O)NC4=O)C5=O)CC3)CC2)cc1` (single isomer, unassigned) [Compound I-256], the DC50 worked out at 18 nM.

The record behind these values is patent publication US20250388565A1, “ESTROGEN RECEPTOR ALPHA DEGRADERS AND METHODS OF USE THEREOF” (Relay Therapeutics, Inc., priority 2022, published 2025).
